# From ChEMBL document CHEMBL4689842, “EUbOPEN Chemogenomics Library wave 1” (2021)
# Legend:
# Fibroblast = assay: Incucyte cell viability with human fibroblast; format: toxicity, cell-based; conditions: 10 µM, compound concentration 10 uM
# HEK-293T = assay: Incucyte cell viability with HEK293T; format: toxicity, cell-based; conditions: human, 10 µM, compound concentration 10 uM
# [1] = 0 h, replicate number 2, timepoint 0 hours
# [2] = 6 h, replicate number 1, timepoint 6 hours
# [3] = 12 h, replicate number 1, timepoint 12 hours
# [4] = 12 h, replicate number 2, timepoint 12 hours
# [5] = 18 h, replicate number 1, timepoint 18 hours
# [6] = 18 h, replicate number 2, timepoint 18 hours
# [7] = 24 h, replicate number 1, timepoint 24 hours
# [8] = 0 h, replicate number 1, timepoint 0 hours
# [9] = 6 h, replicate number 2, timepoint 6 hours
# [10] = 24 h, replicate number 2, timepoint 24 hours
# Also: filed as whole numbers so only -1 and 0 and 1 occur.
Compound,Growth Rate (Fibroblast; [1]),Growth Rate (Fibroblast; [2]),Growth Rate (Fibroblast; [3]),Growth Rate (Fibroblast; [4]),Growth Rate (Fibroblast; [5]),Growth Rate (Fibroblast; [6]),Growth Rate (Fibroblast; [7]),Growth Rate (HEK-293T; [8]),Growth Rate (HEK-293T; [2]),Growth Rate (HEK-293T; [3]),Growth Rate (HEK-293T; [5]),Growth Rate (HEK-293T; [7]),Growth Rate (HEK-293T; [9]),Growth Rate (HEK-293T; [10]),Growth Rate (Fibroblast; [8]),Growth Rate (HEK-293T; [1]),Growth Rate (Fibroblast; [9]),Growth Rate (Fibroblast; [10])
CNC(=O)Nc1ccc2c(c1)[C@@]1(CC2)OC(=O)N(CC(=O)N(Cc2ccc(F)cc2)[C@@H](C)C(F)(F)F)C1=O [A-486],0,0,0,1,0,1,0,1,0,0,0,0,–,–,–,–,–,–
CC(C)NC(=O)N1CC[C@H](NC2=Nc3cc(F)ccc3N(CC(F)F)c3ccc(Cl)cc32)C1,–,0,0,–,0,–,0,0,–,1,1,1,0,0,–,–,–,–
Cc1cc(NC(=O)c2cccc(S(F)(F)(F)(F)F)c2)cc(-n2ccn3nc(-c4cccnc4)cc23)c1 [BAY-309],–,0,0,–,0,–,0,1,0,0,0,0,–,–,1,–,–,–
CCc1nn(CCCN2CCN(c3cccc(Cl)c3)CC2)c(=O)n1CCOc1ccccc1.Cl [NEFAZODONE HYDROCHLORIDE],–,0,0,–,0,–,0,–,0,0,0,0,–,–,0,0,–,–
CNC(=O)c1ccc(Nc2ncc(C(F)(F)F)c(NCc3nccnc3N(C)S(C)(=O)=O)n2)cc1 [DEFACTINIB],1,–,0,1,0,–,0,1,0,0,0,0,–,–,0,–,1,–
Cc1cccc(CN2CCN(C(c3ccccc3)c3ccc(Cl)cc3)CC2)c1.Cl.Cl (stereo not drawn),–,–,1,0,1,0,0,1,0,0,0,0,–,–,0,0,–,–
COC(=O)C1=C(C)NC(C)=C(C(=O)OCCCN2CCC(c3ccccc3)(c3ccccc3)CC2)[C@H]1c1cccc([N+](=O)[O-])c1 [NIGULDIPINE],–,0,0,–,0,1,0,–,0,0,0,0,–,–,0,0,–,1
